PubChem BioAssay (NCI)
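All cell lines were grown in 96-well plates and treated with compound for 48 hours. At the GI50, growth is halved. TGI: total growth inhibition.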

Key:
Experiment in all cases: NCI anticancer screen, dose series, 48 h
[1] = tested on: TK-10 renal
[2] = tested on: KM12 colon
[3] = tested on: NCI/ADR-RES ovarian
[4] = tested on: NCI-H226 lung
[5] = tested on: A498 renal
[6] = tested on: SF-268 CNS
[7] = tested on: SW-620 colon
[8] = tested on: NCI-H460 lung
[9] = tested on: RPMI-8226 leukemia
[10] = tested on: SNB-19 CNS
[11] = tested on: CCRF-CEM leukemia
[12] = tested on: LOX IMVI melanoma
[13] = tested on: MALME-3M melanoma
[14] = tested on: DU-145 prostate
[15] = tested on: A549 NSCLC
[16] = tested on: ACHN renal
[17] = tested on: BT-549 breast
[18] = tested on: OVCAR-3 ovarian
[19] = tested on: MCF7 breast
[20] = tested on: SR leukemia
[21] = tested on: SK-OV-3 ovarian
[22] = tested on: SK-MEL-28 melanoma
[23] = tested on: UACC-62 melanoma
[24] = tested on: T-47D breast
[25] = tested on: OVCAR-5 ovarian
[26] = tested on: HS 578T breast
[27] = tested on: COLO 205 colon
[28] = tested on: K-562 leukemia
[29] = tested on: HL-60(TB) leukemia
[30] = tested on: M14 melanoma
[31] = tested on: SK-MEL-5 melanoma
[32] = tested on: HOP-92 NSCLC
[33] = tested on: 786-0 renal
[34] = tested on: U251 CNS
[35] = tested on: MDA-MB-468 breast
[36] = tested on: HT29 colon
[37] = tested on: IGROV1 ovarian
[38] = tested on: RXF 393 renal
[39] = tested on: OVCAR-8 ovarian
[40] = tested on: SN12C renal
[41] = tested on: HCT-15 colon
[42] = tested on: EKVX NSCLC
[43] = tested on: HCT-116 colon
[44] = tested on: NCI-H522 lung
[45] = tested on: SF-295 CNS
[46] = tested on: MOLT-4 leukemia
[47] = tested on: PC-3 prostate
[48] = tested on: CAKI-1 renal
[49] = tested on: UACC-257 melanoma
[50] = tested on: NCI-H23 lung
[51] = tested on: OVCAR-4 ovarian
[52] = tested on: HCC-2998 colon
[53] = tested on: HOP-62 NSCLC

Compound `CC(=O)Nc1ccc(-n2cnc3cc(-c4ccc(O)cc4)ccc32)cc1F` has a GI50 [1] of 49.5 µM, a TGI [1] greater than 100 µM and a GI50 [2] of 3.22 µM. For the same compound, the TGI [2] was greater than 100 µM, the GI50 [3] was 2.78 µM and the TGI [3] was greater than 100 µM. The GI50 [4] was 83.2 µM, the TGI [4] was greater than 100 µM and the GI50 [5] was greater than 100 µM. It also gave a TGI [5] greater than 100 µM, a GI50 [6] of 9.66 µM and a TGI [6] greater than 100 µM. For the same compound, the GI50 [7] was 3.01 µM, the TGI [7] was greater than 100 µM and the GI50 [8] was 3.38 µM. The TGI [8] was greater than 100 µM, the GI50 [9] was 3.32 µM and the TGI [9] was 16.4 µM. For the same compound, the GI50 [10] was 4.73 µM, the TGI [10] was greater than 100 µM and the GI50 [11] was 3.01 µM. The TGI [11] was greater than 100 µM, the GI50 [12] was 6.43 µM and the TGI [12] was greater than 100 µM. For the same compound, the GI50 [13] was 3.35 µM, the TGI [13] was greater than 100 µM and the GI50 [14] was 4.33 µM. It also gave a TGI [14] greater than 100 µM, a GI50 [15] of 4.77 µM and a TGI [15] greater than 100 µM. It also gave a GI50 [16] of 6.33 µM, a TGI [16] greater than 100 µM and a GI50 [17] of 27 µM. For the same compound, the TGI [17] was greater than 100 µM, the GI50 [18] was 3.06 µM and the TGI [18] was greater than 100 µM. The GI50 [19] was 2.45 µM, the TGI [19] was greater than 100 µM and the GI50 [20] was 0.377 µM. For the same compound, the TGI [20] was 27 µM, the GI50 [21] was 5.05 µM and the TGI [21] was greater than 100 µM. The GI50 [22] was 29.7 µM, the TGI [22] was greater than 100 µM and the GI50 [23] was 2.55 µM. It also gave a TGI [23] greater than 100 µM, a GI50 [24] of 4.02 µM and a TGI [24] greater than 100 µM. For the same compound, the GI50 [25] was 6.22 µM, the TGI [25] was greater than 100 µM and the GI50 [26] was 2.61 µM. The TGI [26] was greater than 100 µM, the GI50 [27] was 3.47 µM and the TGI [27] was greater than 100 µM. It also gave a GI50 [28] of 0.496 µM, a TGI [28] greater than 100 µM and a GI50 [29] of 1.23 µM. For the same compound, the TGI [29] was 3.85 µM, the GI50 [30] was 3.39 µM and the TGI [30] was greater than 100 µM. The GI50 [31] was 4.09 µM, the TGI [31] was greater than 100 µM and the GI50 [32] was 23.2 µM. For the same compound, the TGI [32] was greater than 100 µM, the GI50 [33] was 6.8 µM and the TGI [33] was greater than 100 µM. For the same compound, the GI50 [34] was 3.19 µM, the TGI [34] was greater than 100 µM and the GI50 [35] was 1.25 µM. The TGI [35] was 4.68 µM, the GI50 [36] was 3.86 µM and the TGI [36] was greater than 100 µM. The GI50 [37] was 6.21 µM, the TGI [37] was greater than 100 µM and the GI50 [38] was 1.94 µM. For the same compound, the TGI [38] was 6.14 µM, the GI50 [39] was 3.48 µM and the TGI [39] was greater than 100 µM. The GI50 [40] was 5.8 µM, the TGI [40] was greater than 100 µM and the GI50 [41] was 0.831 µM. For the same compound, the TGI [41] was greater than 100 µM, the GI50 [42] was 6.04 µM and the TGI [42] was greater than 100 µM. For the same compound, the GI50 [43] was 4.21 µM, the TGI [43] was greater than 100 µM and the GI50 [44] was 1.63 µM. It also gave a TGI [44] of 4.14 µM, a GI50 [45] of 3.34 µM and a TGI [45] greater than 100 µM. For the same compound, the GI50 [46] was 2.67 µM, the TGI [46] was greater than 100 µM and the GI50 [47] was 3.66 µM. The TGI [47] was greater than 100 µM, the GI50 [48] was greater than 100 µM and the TGI [48] was greater than 100 µM. The GI50 [49] was 21.5 µM, the TGI [49] was greater than 100 µM and the GI50 [50] was 4.77 µM. The TGI [50] was greater than 100 µM, the GI50 [51] was greater than 100 µM and the TGI [51] was greater than 100 µM. The GI50 [52] was 5.6 µM, the TGI [52] was greater than 100 µM and the GI50 [53] was 4.53 µM. For the same compound, the TGI [53] was greater than 100 µM.
